Data: patent US20230338391A1, “TREATMENT FOR DEPRESSION” (TAKEDA PHARMACEUTICAL COMPANY LIMITED, priority 2020, published 2023)

Tested on: healthy subjects
Assay: TMS crossover study: safety and tolerability
Conditions: 0.5 mg/kg IV infusion, 20 subjects

CNC1(c2ccccc2Cl)CCCCC1=O (stereo not shown) [ketamine, reference compound]
discontinuation because of AEs: One subject in the ketamine treatment was discontinued from study drug because of AEs
